Where two headings read alike, the source gives them in different places.

In data set [1] the test system is human PBMC. Put plainly: LPS stimulation of PBMC, cytokine production. It counts as cell-based. Particulars: for effect on LPS-induced cytokine production: μM range; for effect on LPS-induced cytokine production / IC50: 1 μg/mL LPS, 18 hours; for IC50: Homo sapiens, PBMC, 45 minutes preincubation. As to the method:
Amgen Institutional Review Board approval and consent was obtained for collection and the studies involving human blood. PBMC were isolated from heparinized blood using Ficoll and then plated onto 96-well plates. Butyrate or GPR43 agonists were incubated with the PBMC for 45 minutes prior to the addition of 1 μg/mL lipopolysaccharide (LPS). Cell culture supernatants were collected at 18 hours post-stimulation. TNFα, IL-1β and IL-6 production were measured using Meso Scale Discovery multiplex kits.

The test system of data set [2] is human T cells. Nature of the data set: One-way mixed lymphocyte reaction, T cell proliferation and cytokines. It is filed as cell-based. From the text:
Amgen Institutional Review Board approval and consent was obtained for collection and the studies involving human blood. PBMC were obtained from volunteers’ human blood using Ficoll. T cells were isolated using magnetic sorting with a pan T cell isolation kit (Miltenyi Biotec). Stimulator cells were isolated by negative magnetic sorting using anti-CD3 beads to deplete CD3+ cells. The stimulator cells were irradiated and mixed together with the purified T cells in the presence or absence of the SCFA or agonist. Supernatants were collected at day 3 for cytokine measurements using Meso Scale Discovery multiplex kits, and proliferation was measured at day 4 after an 18 hour pulse with 1μCi 3H-thymidine per well.

The target of data set [3] is T1, human FFA2 receptor (Homo sapiens, UniProt O15552).
T1 construct: expressed in transfected cells
T1 sequence (O15552 1-330): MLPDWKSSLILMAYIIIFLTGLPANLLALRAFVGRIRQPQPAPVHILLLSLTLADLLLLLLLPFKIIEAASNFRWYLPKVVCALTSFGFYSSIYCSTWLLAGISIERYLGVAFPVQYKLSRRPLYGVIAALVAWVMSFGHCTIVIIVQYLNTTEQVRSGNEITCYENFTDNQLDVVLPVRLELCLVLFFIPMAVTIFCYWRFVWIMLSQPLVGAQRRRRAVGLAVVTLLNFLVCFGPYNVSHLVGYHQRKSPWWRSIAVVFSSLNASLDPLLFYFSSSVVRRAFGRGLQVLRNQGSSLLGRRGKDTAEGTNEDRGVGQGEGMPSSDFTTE
Put plainly: Aequorin assay, cytosolic calcium in CHO-K1 cells stably expressing aequorin and human FFA2 receptor. It is filed as cell-based. Particulars: CHO-K1 cells stably expressing human GPR43, read-out: Ca^2+ (Aequorin). Here is the method: Agonist-induced receptor activation was determined by an increase in cytosolic calcium concentration in CHO-K1 cells stably expressing the mitochondrial targeted aequorin and human FFA2 receptor. The increased cytosolic calcium was monitored by luminescence emitted from aequorin as previously described

In data set [4] the test system is C2BBe1 cells. Nature of the data set: Intestinal barrier function by ECIS in C2BBe1 cells. It counts as cell-based, human. Particulars: 48 hours; for barrier resistance (ECIS), barrier formation: 75 Hz, #58 at 1 uM and 10 uM vs DMSO control. As to the method:
Cells were cultured in DMEM containing 10% FBS, and the next day (day 1), the medium was replaced with that containing 0.5% serum. On day 2, media was changed and test agents were added in duplicate in media containing 0.5% serum. The experiment was concluded 48 hours later (day 4). Barrier resistance was measured on the ECIS instrument. The plots shown are at 75 Hz beginning at day 2 post-addition of the test agents with resistance values normalized to those observed just prior to the addition of test agents. For barrier disruption and reformation studies, cells were cultured in transwells in the ECIS array as described above in the presence of 10% serum for one day and 0.5% serum for another day. On day 2, the media was replaced with media containing 0.5% serum and 2.5 mM EGTA (in apical and basolateral chambers). The EGTA was washed off 5 hours later and replaced with media containing 0.5% serum and test agents. Cells were monitored over the next 48 hours for barrier reformation and the plots shown are at 75 Hz with resistance values normalized to those observed just prior to the addition of test agents.

Data set [5] deals with T2, human GPR43 (Homo sapiens, UniProt O15552).
T2 construct: expressed in transfected cells
T2 sequence (O15552 1-330): T1 sequence (O15552 1-330)
Put plainly: cAMP inhibition assay (HTRF), forskolin-induced cAMP in CHO cells stably expressing human GPR43. Particulars: inhibition of forskolin-induced cAMP production. It counts as cell-based. Here is the method:
A competitive, HTRF® immunoassay (CisBio Dynamic 2 cAMP kit) was used to measure the inhibition of cAMP response in CHO cells stably expressing human GPR43. Assay-ready cells were thawed, resuspended in PBS and stimulated with forskolin (3μM final) for 45 minutes at room temperature in the presence of serially diluted natural ligands or test compounds in a 384 well plate (Greiner). Subsequently the cells were lysed by adding lysis buffer containing the cAMP-Tracer and Europium-labeled anti-cAMP antibody according to the manufacturer’s protocol. The signals were recorded using a Perkin Elmer Envision. The raw data was calculated as fluorescence ratio (665nm/620nm) and analyzed using GraphPad Prism Software.

Data set [6] has as its system C2BBe1 cells. Nature of the data set: Intestinal barrier function by TEER and Lucifer Yellow in C2BBe1 monolayers.
For data set [7], the system named is intestinal epithelial cells. Set-up: method as in PMID 9142899, PMID 17211138. Particulars: published data ref [13], [15]; cited from earlier work.
The mark [8] stands for this setting: 72 h, supernatant day 3, read-out: IL-17A IC50.

In the case of `CC(C)(C)[C@H](C(=O)Nc1ncc(-c2ccccc2)s1)c1ccc(Cl)cc1` [#58], the “effect on LPS-induced cytokine production” value in data set [1] was “slight increase in some cytokines”. In addition, the IC50 in data set [2] (setting [8]) came out at 8.88 µM. The EC50 turned out to be 0.6 µM in data set [3] (10% FBS), 0.3 µM in data set [3] (No FBS) and 1.8 µM in data set [5]. The “barrier resistance (ECIS), barrier formation” value in data set [4] is reported as “did not result in increased resistance”.
Consider `CCCC(=O)O` [Butyrate, butyrate], for which the IC50 worked out at 440 µM in data set [1] (read-out: IL-1β IC50); 2440 µM in data set [1] (read-out: IL-6 IC50); 130 µM in data set [1] (read-out: TNFα IC50); 50 µM in data set [2] (72 h, supernatant day 3, read-out: IFNγ IC50); 60 µM in data set [2] (setting [8]); 170 µM in data set [2] (day 4, 3H-thymidine, read-out: Proliferation IC50). Further, the cell viability entry in data set [1] (highest concentrations utilized in this assay) is reported as “not altered”. Besides, the “toxicity in TEER assays” value in data set [6] (5 mM) is recorded as “appeared to be toxic”. Besides, the “effect on transepithelial electrical resistance (TEER)” value in data set [6] (C2BBe1 monolayers, day 5) is reported as “most potent of the three SCFA”. For the same compound, the “concentrations toxic to intestinal epithelial cells” value in data set [7] is over 5000 µM. Besides, the “barrier reformation after EGTA disruption (ECIS resistance)” value in data set [4] (2.5 mM EGTA 5 hours, then test agents) was “earlier and higher levels of resistance”. In addition, the “barrier resistance (ECIS), barrier formation” value in data set [4] was “quicker increase, as well as higher measurements of resistance”. The same compound showed an EC50 in data set [5] of 1060 µM.
With `CC(C)[C@H](C(=O)Nc1ncc(F)s1)c1ccc(Cl)cc1` [#44], in data set [1], the “effect on LPS-induced cytokine production” value was “only the highest concentration of the agonist #44 resulted in inhibition of cytokine production”. In addition, in data set [2] (setting [8]), the IC50 was 2.45 µM. The results for the EC50 in data set [3] (10% FBS), in data set [3] (No FBS) and in data set [5] were 1 µM, 0.6 µM and 1.1 µM, respectively.

The values above are taken from article PMC5519041, “Differing roles for short chain fatty acids and GPR43 agonism in the regulation of intestinal barrier function and immune responses” (PLoS ONE, 2017).
